Experiments:
Prothrombin = Prothrombin (Homo sapiens, UniProt P00734); experiment: Inhibitory activity against thrombin
Coagulation factor X [1] = molecular target: Coagulation factor X (Homo sapiens, UniProt P00742); experiment: Inhibition of human Coagulation factor X
Serine protease 1 = molecular target: T1, Serine protease 1 (Bos taurus, UniProt P00760); experiment: Inhibitory activity against trypsin
T1 sequence (P00760 whole entry): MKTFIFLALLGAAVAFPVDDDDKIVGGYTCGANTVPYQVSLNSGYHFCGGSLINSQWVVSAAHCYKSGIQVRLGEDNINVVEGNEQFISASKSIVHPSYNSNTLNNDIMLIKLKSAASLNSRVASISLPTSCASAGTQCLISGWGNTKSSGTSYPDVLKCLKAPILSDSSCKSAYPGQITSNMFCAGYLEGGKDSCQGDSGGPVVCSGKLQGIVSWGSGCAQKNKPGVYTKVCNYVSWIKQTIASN

Oryctolagus cuniculus = species: Oryctolagus cuniculus; experiment: Concentration required to diminish the clot size by 50% in rabbit A-V shunt model of thrombosis; assay type: functional
[2] = Clearance value of compound was determined after intravenous administration of 1 mg/kg/h in dog; assay type: ADME, organism-based, Canis lupus familiaris; set-up: route intravenous; conditions: in vivo
[3] = Volume of distribution after intravenous administration of 1 mg/kg/h in dog; conditions: in vivo
Coagulation factor X [4] = molecular target: T2, Coagulation factor X (Oryctolagus cuniculus, UniProt O19045); experiment: Inhibitory activity against rabbit Coagulation factor X
T2 sequence (O19045 whole entry): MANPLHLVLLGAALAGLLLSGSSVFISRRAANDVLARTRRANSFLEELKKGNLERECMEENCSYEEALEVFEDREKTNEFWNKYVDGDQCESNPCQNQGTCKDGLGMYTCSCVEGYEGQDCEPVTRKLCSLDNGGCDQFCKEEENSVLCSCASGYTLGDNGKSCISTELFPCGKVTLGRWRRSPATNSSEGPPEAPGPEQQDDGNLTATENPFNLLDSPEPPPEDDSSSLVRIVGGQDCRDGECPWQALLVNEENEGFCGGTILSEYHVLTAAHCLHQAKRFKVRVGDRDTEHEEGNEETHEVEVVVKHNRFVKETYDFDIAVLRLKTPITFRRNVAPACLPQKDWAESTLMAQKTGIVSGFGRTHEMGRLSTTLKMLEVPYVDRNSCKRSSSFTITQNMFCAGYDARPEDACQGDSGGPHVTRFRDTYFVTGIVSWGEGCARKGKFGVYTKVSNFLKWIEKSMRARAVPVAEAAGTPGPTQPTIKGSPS

[5] = Half-life after intravenous administration of 1 mg/kg/h in dog; assay type: ADME, organism-based, Canis lupus familiaris; set-up: route intravenous; conditions: in vivo
Canis familiaris = experiment: Volume of distribution after intravenous administration of 1 mg/kg/h in dog; assay type: ADME, organism-based, Canis lupus familiaris; set-up: route intravenous; conditions: in vivo

Coagulation factor X (Homo sapiens, UniProt P00742), sequence (P00742 41-179 limits assumed): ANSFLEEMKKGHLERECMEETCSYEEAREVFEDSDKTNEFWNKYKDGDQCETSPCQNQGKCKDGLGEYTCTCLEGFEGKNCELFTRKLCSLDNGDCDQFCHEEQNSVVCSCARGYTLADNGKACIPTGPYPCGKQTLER
Coagulation factor X (Homo sapiens, UniProt P00742), sequence (P00742 235-488 limits assumed): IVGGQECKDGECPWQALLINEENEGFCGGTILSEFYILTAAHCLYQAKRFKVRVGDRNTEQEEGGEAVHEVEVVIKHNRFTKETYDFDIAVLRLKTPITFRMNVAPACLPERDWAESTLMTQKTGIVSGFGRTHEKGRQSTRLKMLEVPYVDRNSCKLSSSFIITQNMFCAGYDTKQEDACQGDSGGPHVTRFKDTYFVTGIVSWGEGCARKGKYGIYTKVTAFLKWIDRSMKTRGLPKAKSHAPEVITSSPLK

| Ki (Prothrombin) [µM] | Ki (Coagulation factor X [1]) [µM] | Ki (Serine protease 1) [µM] | clearance [2] [L/h/kg] | Vdss [3] [L/kg] | Ki (Coagulation factor X [4]) [µM] | half-life [5] [h] | Vdss (Canis familiaris) [L/kg] | SMILES | ID50 (Oryctolagus cuniculus) [µM/h/kg] |
| --- | --- | --- | --- | --- | --- | --- | --- | --- | --- |
| – | – | 0.091 | – | – | – | – | – | N=C(N)c1cccc(C2=NOC(Cn3cnnn3)(C(=O)Nc3ccc(-c4ccccc4S(N)(=O)=O)cc3)C2)c1 (stereo not drawn) | – |
| 2 | – | 0.021 | 1.5 | – | 0.0004 | 4.3 | 1.7 | N=C(N)c1cccc(-c2nocc2C(=O)Nc2ccc(-c3ccccc3S(N)(=O)=O)cc2)c1 | 0.31 |
| – | – | 0.12 | – | – | – | – | – | CC1(C(=O)Nc2ccc(-c3ccccc3S(N)(=O)=O)cc2)CC(c2cccc(C(=N)N)c2)=NO1 (stereo not drawn) | – |
| 5.7 | 0.0023 | 0.18 | 0.49 | – | – | 1 | 0.24 | N=C(N)c1cccc(C2=NO[C@H](Cn3cnnn3)[C@H]2C(=O)Nc2ccc(-c3ccccc3S(N)(=O)=O)cc2)c1 | – |
| – | – | 0.07 | – | – | 0.0008 | – | – | COCC1(C(=O)Nc2ccc(-c3ccccc3S(N)(=O)=O)cc2)CC(c2cccc(C(=N)N)c2)=NO1 (stereo not drawn) | 0.26 |

More lines, now with the values behind:

| SMILES | Ki (Prothrombin) [µM] | Ki (Coagulation factor X [1]) [µM] | Ki (Serine protease 1) [µM] | clearance [2] [L/h/kg] | Vdss [3] [L/kg] | Ki (Coagulation factor X [4]) [µM] | half-life [5] [h] | Vdss (Canis familiaris) [L/kg] | ID50 (Oryctolagus cuniculus) [µM/h/kg] |
| --- | --- | --- | --- | --- | --- | --- | --- | --- | --- |
| N=C(N)c1cccc(-c2noc(CO)c2C(=O)Nc2ccc(-c3ccccc3S(N)(=O)=O)cc2)c1 | 1.9 | 0.0005 | 0.05 | – | – | – | – | – | – |
| N=C(N)c1cccc(-c2noc(N)c2C(=O)Nc2ccc(-c3ccccc3S(N)(=O)=O)cc2)c1 | 4 | 0.0034 | 0.117 | – | – | – | – | – | – |
| COC[C@H]1ON=C(c2cccc(C(=N)N)c2)[C@@H]1C(=O)Nc1ccc(-c2ccccc2S(N)(=O)=O)cc1 | 4.6 | – | 0.19 | 0.99 | 0.38 | 0.00064 | 1.2 | – | 0.21 |
| N=C(N)c1cccc(-c2noc(C(F)(F)F)c2C(=O)Nc2ccc(-c3ccccc3S(N)(=O)=O)cc2)c1 | 11 | 0.0095 | 0.4 | – | – | – | – | – | – |
| COCc1onc(-c2cccc(C(=N)N)c2)c1C(=O)Nc1ccc(-c2ccccc2S(N)(=O)=O)cc1 | 3.8 | 0.00063 | 0.076 | 1.7 | – | – | 1.2 | 0.85 | – |
| C[C@H]1ON=C(c2cccc(C(=N)N)c2)[C@@H]1C(=O)Nc1ccc(-c2ccccc2S(N)(=O)=O)cc1 | 4.5 | 0.0018 | 0.11 | – | – | – | – | – | – |
| CS(=O)(=O)c1ccccc1-c1ccc(NC(=O)c2conc2-c2cccc(C(=N)N)c2)cc1 | 0.54 | 0.0001 | 0.025 | – | – | – | – | – | – |
| COCc1onc(-c2cccc(C(=N)N)c2)c1C(=O)Nc1ccc(-c2ccccc2S(N)(=O)=O)cn1 | 12 | – | 0.2 | – | – | – | – | – | – |

From ChEMBL document CHEMBL1133078, “Isoxazolines and isoxazoles as factor Xa inhibitors” (Bioorg Med Chem Lett, 2000)
